US6545006B1, “Process for obtaining L-dihydroorotic acid and use thereof” (Aventis Pharma Deutschland GmbH, priority 1997, dated 2003)

Columns and labels:
DHO-DH = target: T1, DHO-DH (Mus musculus, UniProt O35435); assay: Intracellular DHO-concentrations in A20.2.J cells incubated with A77 1726; format: cell-based; conditions: for DHO-Concentration (μg/ml ± SD) Experiment 1 (E10 B) / DHO-Concentration (μg/ml ± SD) Experiment 2 (E14): 5 μM A77 1726, 24 hours, n=3
T1 construct: endogenous in cells; host or cells: A20.2.J cells
Protocol: Cell Culture: A20.2.J cells were cultured in serum free medium (37° C., 5% CO2) in an expansion culture at logarithmic cell growth. […] The percentage of dead cells were <8% (3).
Prepared cells were resuspended in a defined medium volume and cell density. Depending on expected DHO content, between 1-50 million cells were removed, pelleted (5 min, 350×g) and supernatant discarded. Cell were lysed, by adding 500 μl 1.2 M HCIO4. The lysates were transferred into 2 ml Eppendorf safe-lock-caps, and the protein precipitated by 2 min high speed centrifugation. The acidified lysates were completely removed, transferred into glass vials and, after addition of 500 μl chloroform, thoroughly mixed by 2 min vortexing. Cellular lipids were extracted following 10 min cold centrifugation (1502×g; 10° C.). The purified supernatants were collected in 2 ml Eppendorf caps for storage at −20° C. until high pressure liquid chromatography (HPLC) determination.
The chromatographic separation was performed as described in example 1.The range of the conductive detector was set to 10 μS. The analysis was performed at room temperature. The mobile phase was composed of 100 mM NaOH (A) and water (B). With that system the following gradient was produced:
(* all values extrapolated to 10×10^6 cells) (n=2).
The data are given as μg/ml DHO±SD extrapolated to ten million cells (0-4 h=n=2, 7 h=n=4).

[1] = A77 1726 concentrations in serum from rats treated with leflunomide; format: in vivo, rat; conditions: for A77 1726 concentrations in serum, Mean: leflunomide 10 mg/kg p.o. twice daily; for A77 1726 serum concentration: 3 hours after oral drug administration
Protocol: Animals: Male Wistar-Lewis rats (Mollegaard Breading Center Ltd. Ejby, DK) with a body weight of 160-200 g.
Adjuvant Arthritis: The disease was induced by injecting 0.1 ml Freund's adjuvant (6 mg Mycobacterium smegmatis suspended in 1 ml heavy, white paraffin oil (Merck, Darmstadt) into the root of Wistar-Lewis rat's tails. Pathological symptoms generally appear between 10 and 14 days after disease induction.
Drug Treatment: Drugs were suspended in 1% carboxymethylcellulose (COMC). […] (see table 12). At time point 0 h, 3 animals from both diseased and non-diseased groups were sacrificed to determine base-line levels. An additional 3 healthy and 3 diseased animals were treated with placebo (COMC alone) for 5 days.
Sampling: Three animals per group were sacrificed at each sampling time point. Serum and splenocytes taken at 3 h, 7 h, 27 h, 51 h, 75 h, and 99 h (see table 12). With the exception of the 7 h value, samples were taken three hours after the last drug application. The 7 h value was taken one hour after the second dosing. Samples from the placebo treated animals were taken at the 0 h (n=3) and 99 h (n=3) time points
Blood collected by heart puncture was stored for 30 min at 4° C. and then centrifuged for 10 min at 3000 rpm. Serum was separated and stored in Eppendorf-caps at −20° C. (3). Before HPLC analysis, the frozen serum was thawed and, in order to remove the proteins, 200 μl serum were added to a Microcon filter (model 10,code 42407, Amicon) and centrifuged for 30 min at 13 000 rpm.
The tubes were then mixed in a Vortex mixer and centrifuged at 2500 rpm (room temperature) for 10 minutes. For HPLC analysis, the supernatant (400 μl) was transferred to a vial and water (400 μl) added and mixed. The HPLC conditions were as follows: The hardware consisted of a TSP P2000 pump, a TSP AS1000 auto-sampler, a TSP SP4270 integrator, and a TSP UV100 UV-detector. Detection was at 292 nm wavelength. The mobile phase consisted of 650 ml methanol (CHROMASOLV), 2,42 g tetrabutylammoniumbromide, and 350 ml 0,05 M Ammoniumacetate. The flow rate was 0.5 ml/min A CHROMPACK Spherisorb ODS-2 10 cm column with a 1 cm reversed phase (R2) guard column was used. 100 μl was injected into the column and the running time was 7 min.

T1 sequence (O35435 whole entry): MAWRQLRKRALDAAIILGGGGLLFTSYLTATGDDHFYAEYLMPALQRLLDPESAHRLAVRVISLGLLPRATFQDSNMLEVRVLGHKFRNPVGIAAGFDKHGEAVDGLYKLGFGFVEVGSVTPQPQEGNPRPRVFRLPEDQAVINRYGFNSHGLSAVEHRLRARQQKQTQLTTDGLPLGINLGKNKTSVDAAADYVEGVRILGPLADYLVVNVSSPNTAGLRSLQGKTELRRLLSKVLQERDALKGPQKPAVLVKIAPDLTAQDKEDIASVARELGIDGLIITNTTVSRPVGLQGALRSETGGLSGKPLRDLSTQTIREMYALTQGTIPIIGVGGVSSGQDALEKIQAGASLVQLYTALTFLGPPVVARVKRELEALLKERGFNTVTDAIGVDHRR

DHO-Concentration (μg/ml ± SD) Experiment 1 (E10 B) (DHO-DH; 1 ×10^6 cells extracted): 14.08 ± 2.40 µg/mL | DHO-Concentration (μg/ml ± SD) Experiment 2 (E14) (DHO-DH; 1 ×10^6 cells extracted): 11.75 ± 0.23 µg/mL | Concentration DHO (μg/ml) mean ± SD (DHO-DH; 1 × 10^6 cells/ml, 1 h, 5 μM A77 1726, extrapolated to 10×10^6 cells, n=2): 6.25 ± 0.42 µg/mL | Concentration DHO (μg/ml) mean ± SD (DHO-DH; 1 × 10^6 cells/ml, 4 h, 5 μM A77 1726, extrapolated to 10×10^6 cells, n=2): 33.06 ± 2.26 µg/mL | Concentration DHO (μg/ml) mean ± SD (DHO-DH; 1 × 10^6 cells/ml, 7 h, 5 μM A77 1726, extrapolated to 10×10^6 cells, n=2): 60.07 ± 0.01 µg/mL | incubation time after which detectable amounts of DHO could be determined (DHO-DH; 1×10^6 cells/ml, independent of the drug concentration): 1 h | incubation time with the greatest amount of DHO determined (DHO-DH; 1×10^6 cells/ml, saturation afterwards): 6 h | DHO-Concentration (μg/ml ± SD) Experiment 1 (E10 B) (DHO-DH; 2 ×10^6 cells extracted): 19.51 ± 6.47 µg/mL | DHO-Concentration (μg/ml ± SD) Experiment 2 (E14) (DHO-DH; 2 ×10^6 cells extracted): 28.27 ± 0.79 µg/mL | Concentration DHO (μg/ml) mean ± SD (DHO-DH; 2 × 10^6 cells/ml, 1 h, 5 μM A77 1726, extrapolated to 10×10^6 cells, n=2): 5.47 ± 0.10 µg/mL | Concentration DHO (μg/ml) mean ± SD (DHO-DH; 2 × 10^6 cells/ml, 4 h, 5 μM A77 1726, extrapolated to 10×10^6 cells, n=2): 26.36 ± 0.42 µg/mL | Concentration DHO (μg/ml) mean ± SD (DHO-DH; 2 × 10^6 cells/ml, 7 h, 5 μM A77 1726, extrapolated to 10×10^6 cells, n=2): 42.31 ± 1.07 µg/mL | Concentration DHO (μg/ml) mean ± SD (DHO-DH; 3 × 10^6 cells/ml, 1 h, 5 μM A77 1726, extrapolated to 10×10^6 cells, n=2): 5.63 ± 0.19 µg/mL | Concentration DHO (μg/ml) mean ± SD (DHO-DH; 3 × 10^6 cells/ml, 4 h, 5 μM A77 1726, extrapolated to 10×10^6 cells, n=2): 19.39 ± 1.87 µg/mL | Concentration DHO (μg/ml) mean ± SD (DHO-DH; 3 × 10^6 cells/ml, 7 h, 5 μM A77 1726, extrapolated to 10×10^6 cells, n=2): 28.79 ± 0.34 µg/mL | DHO-Concentration (μg/ml ± SD) Experiment 1 (E10 B) (DHO-DH; 4 ×10^6 cells extracted): 53.58 ± 3.50 µg/mL | DHO-Concentration (μg/ml ± SD) Experiment 2 (E14) (DHO-DH; 4 ×10^6 cells extracted): 57.20 ± 2.76 µg/mL | DHO-Concentration (μg/ml ± SD) Experiment 1 (E10 B) (DHO-DH; 6 ×10^6 cells extracted): 73.01 ± 1.49 µg/mL | DHO-Concentration (μg/ml ± SD) Experiment 2 (E14) (DHO-DH; 6 ×10^6 cells extracted): 85.38 ± 2.33 µg/mL | DHO-Concentration (μg/ml ± SD) Experiment 1 (E10 B) (DHO-DH; 8 ×10^6 cells extracted): 99.89 ± 5.96 µg/mL | DHO-Concentration (μg/ml ± SD) Experiment 2 (E14) (DHO-DH; 8 ×10^6 cells extracted): 107.02 ± 3.47 µg/mL | DHO-Concentration (μg/ml ± SD) Experiment 1 (E10 B) (DHO-DH; 10 ×10^6 cells extracted): 113.37 ± 4.24 µg/mL | DHO-Concentration (μg/ml ± SD) Experiment 2 (E14) (DHO-DH; 10 ×10^6 cells extracted): 128.73 ± 1.95 µg/mL | Concentration DHO (μg/ml) mean ± SD (DHO-DH; A77 1726 5 μM, 0 h, one million cells/ml, extrapolated to ten million cells): 2.73 ± 0.10 µg/mL | Concentration DHO (μg/ml) mean ± SD (DHO-DH; A77 1726 5 μM, 1 h, one million cells/ml, extrapolated to ten million cells): 9.20 ± 0.09 µg/mL | Concentration DHO (μg/ml) mean ± SD (DHO-DH; A77 1726 5 μM, 2 h, one million cells/ml, extrapolated to ten million cells): 24.03 ± 1.15 µg/mL | Concentration DHO (μg/ml) mean ± SD (DHO-DH; A77 1726 5 μM, 4 h, one million cells/ml, extrapolated to ten million cells): 59.48 ± 0.72 µg/mL | Concentration DHO (μg/ml) mean ± SD (DHO-DH; A77 1726 5 μM, 7 h, one million cells/ml, extrapolated to ten million cells): 87.54 ± 1.58 µg/mL | Concentration DHO (μg/ml) mean ± SD (DHO-DH; A77 1726 10 μM, 0 h, one million cells/ml, extrapolated to ten million cells): 2.73 ± 0.10 µg/mL | Concentration DHO (μg/ml) mean ± SD (DHO-DH; A77 1726 10 μM, 1 h, one million cells/ml, extrapolated to ten million cells): 8.5 ± 0.39 µg/mL | Concentration DHO (μg/ml) mean ± SD (DHO-DH; A77 1726 10 μM, 2 h, one million cells/ml, extrapolated to ten million cells): 20.74 ± 1.43 µg/mL | Concentration DHO (μg/ml) mean ± SD (DHO-DH; A77 1726 10 μM, 4 h, one million cells/ml, extrapolated to ten million cells): 58.65 ± 2.06 µg/mL | Concentration DHO (μg/ml) mean ± SD (DHO-DH; A77 1726 10 μM, 7 h, one million cells/ml, extrapolated to ten million cells): 82.65 ± 4.50 µg/mL | Concentration DHO (μg/ml) mean ± SD (DHO-DH; A77 1726 25 μM, 0 h, one million cells/ml, extrapolated to ten million cells): 2.73 ± 0.08 µg/mL | Concentration DHO (μg/ml) mean ± SD (DHO-DH; A77 1726 25 μM, 1 h, one million cells/ml, extrapolated to ten million cells): 15.05 ± 0.26 µg/mL | Concentration DHO (μg/ml) mean ± SD (DHO-DH; A77 1726 25 μM, 2 h, one million cells/ml, extrapolated to ten million cells): 26.06 ± 0.20 µg/mL | Concentration DHO (μg/ml) mean ± SD (DHO-DH; A77 1726 25 μM, 4 h, one million cells/ml, extrapolated to ten million cells): 50.21 ± 1.54 µg/mL | Concentration DHO (μg/ml) mean ± SD (DHO-DH; A77 1726 25 μM, 7 h, one million cells/ml, extrapolated to ten million cells): 114.89 ± 3.61 µg/mL | accumulation of L-DHO in A20.2.J tumor cells (DHO-DH; incubation with A77 1726): rapid accumulation of L-DHO | A77 1726 concentrations in serum, Mean ([1]; Adjuvant Diseased Rats, 3 h): 26.33 µg/mL | A77 1726 concentrations in serum, Mean ([1]; Adjuvant Diseased Rats, 7 h): 42.3 µg/mL | A77 1726 concentrations in serum, Mean ([1]; Adjuvant Diseased Rats, 27 h): 19.7 µg/mL | A77 1726 concentrations in serum, Mean ([1]; Adjuvant Diseased Rats, 51 h): 9.2 µg/mL | A77 1726 concentrations in serum, Mean ([1]; Adjuvant Diseased Rats, 75 h): 9.9 µg/mL | A77 1726 concentrations in serum, Mean ([1]; Adjuvant Diseased Rats, 99 h): 12.2 µg/mL | A77 1726 concentrations in serum, Mean ([1]; Non-Diseased Rats, 3 h): 30.7 µg/mL | A77 1726 concentrations in serum, Mean ([1]; Non-Diseased Rats, 7 h): 47.9 µg/mL | A77 1726 concentrations in serum, Mean ([1]; Non-Diseased Rats, 27 h): 9.6 µg/mL | A77 1726 concentrations in serum, Mean ([1]; Non-Diseased Rats, 51 h): 7400 µg/mL | A77 1726 concentrations in serum, Mean ([1]; Non-Diseased Rats, 99 h): 12.7 µg/mL | A77 1726 serum concentration ([1]; adjuvant diseased rats): about 26 μg/ml | time to reach the 7 to 12 μg/ml A77 1726 serum concentrations ([1]; diseased animals): 51 h | time to reach the 7 to 12 μg/ml A77 1726 serum concentrations ([1]; non-diseased rats): 27 h | A77 1726 serum concentration ([1]; non-diseased rats): ~31 µg/mL | time of peak A77 1726 serum concentration ([1]; one hour after the second dosing): 7 h
SMILES: CC(O)=C(C#N)C(=O)Nc1ccc(C(F)(F)F)cc1 [A77 1726, N-(4-trifluoromethyl)-2-cyano-3-hydroxy-crotonamide]
